The target in this assay is T1, recombinant EphB4 (Homo sapiens, UniProt P54760).
T1 construct: amino acids 563-987; Swiss-Prot Acc; No. P54760; purchased ProQinase GmbH 0178-0000-3
T1 sequence (P54760 563-987): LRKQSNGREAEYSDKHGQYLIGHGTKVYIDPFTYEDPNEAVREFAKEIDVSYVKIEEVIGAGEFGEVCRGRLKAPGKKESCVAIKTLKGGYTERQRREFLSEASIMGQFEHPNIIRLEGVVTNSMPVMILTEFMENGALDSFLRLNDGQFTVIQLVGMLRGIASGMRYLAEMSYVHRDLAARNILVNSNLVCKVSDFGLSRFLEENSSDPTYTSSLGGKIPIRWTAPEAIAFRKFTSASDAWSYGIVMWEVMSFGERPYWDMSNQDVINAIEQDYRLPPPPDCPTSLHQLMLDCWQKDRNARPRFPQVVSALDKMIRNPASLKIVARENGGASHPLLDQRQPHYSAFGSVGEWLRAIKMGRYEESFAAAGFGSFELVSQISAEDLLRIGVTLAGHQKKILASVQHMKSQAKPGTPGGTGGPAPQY
Kind of assay: In vitro EphB4 enzyme assay (Alphascreen). Format: biochemical. As to the method:
This assay detects inhibitors of EphB4-mediated phosphorylation of a polypeptide substrate using Alphascreen™ luminescence detection technology. Briefly, recombinant EphB4 was incubated with a biotinylated-polypeptide substrate (biotin-poly-GAT) in presence of magnesium-ATP. The reaction was stopped by addition of EDTA, together with streptavidin-coated donor beads which bind the biotin-substrate containing any phosphorylated tyrosine residues. Anti-phosphotyrosine antibodies present on acceptor beads bind to phosphorylated substrate, thus bringing the donor & acceptor beads into close proximity. Subsequent excitation of the donor beads at 680 nm generated singlet oxygen species that interact with a chemiluminescer on the acceptor beads, leading to light emission at 520-620 nm. The signal intensity is directly proportional to the level of substrate phosphorylation and thus inhibition is measured by a decrease in signal.
Assay plates were then incubated at room temperature for 1 hr. […] The plates were sealed under natural lighting conditions, wrapped in aluminium foil and incubated in the dark for a further 20 hrs.
The resulting assay signal was determined on the Perkin Elmer EnVision plate reader. The minimum value was subtracted from all values, and the signal plotted against compound concentration to generate IC50 data.
In general terms: Alpha assays give light when donor and acceptor beads are brought close together.
Usually IC50 stands for the concentration that gives 50% inhibition. Regarding `CC(C)CNC(=O)c1cc(Nc2nccc(N(C)c3cccc(Cl)c3)n2)cc(N2CCOCC2)c1` [Example 19.17, 3-[[4-[(3-chlorophenyl)-methyl-amino]pyrimidin-2-yl]amino]-N-(2-methylpropyl)-5-morphohn-4-yl-benzamide], the IC50 came to 2830 nM. The figure for `Cc1ccc(CO)cc1N(C)c1ccnc(Nc2cc(N3CCOCC3)cc(N3CC[C@H](O)C3)c2)n1` [Example 7.9, (3S)-1-[3-[[4-[[5-(hydroxymethyl)-2-methyl-phenyl]-methyl-amino]pyrimidin-2-yl]amino]-5-morpholin-4-yl-phenyl]pyrrolidin-3-ol] is 151 nM; for `COCCN(c1ccnc(Nc2cc(N3CCOCC3)cc(N3CCOCC3)c2)n1)c1cc(OC)ccc1C` [Example 22.1, N-(3,5-dimorpholin-4-ylphenyl)-N′-(2-methoxyethyl)-N′-(5-methoxy-2-methyl-phenyl)pyrimidine-2,4-diamine] it is 1480 nM.

For the molecule `COc1cc(N(C)c2ccnc(Nc3cc(N4CCOCC4)cc(N4CCOCC4)c3)n2)ccc1C#N` [Example 15.2, 4-[[2-[(3,5-dimorpholin-4-ylphenyl)amino]pyrimidin-4-yl]-methyl-amino]-2-methoxy-benzonitrile], the IC50 is 206 nM. The figure for `CN(c1ccnc(Nc2cc(N3CCOCC3)cc(N3CCOCC3)c2)n1)c1cccc(Cl)c1Cl` [Example 15.21, N′-(2,3-dichlorophenyl)-N-(3,5-dimorpholin-4-ylphenyl)-N′-methyl-pyrimidine-2,4-diamine] is 1310 nM. The figure for `CN(c1ccnc(Nc2cc(N3CCOCC3)cc(N3CCOCC3)c2)n1)c1cc(F)ccc1F` [Example 15.8, N′-(2,5-difluorophenyl)-N-(3,5-dimorpholin-4-ylphenyl)-N′-methyl-pyrimidine-2,4-diamine] is 338 nM. Next, `Cc1ccc(CO)cc1N(C)c1ccnc(Nc2cc(C(=O)N(C)C)cc(N3CCOCC3)c2)n1` [Example 7.11, 3-[[4-[[5-(hydroxymethyl)-2-methyl-phenyl]-methyl-amino]pyrimidin-2-yl]amino]-N,N-dimethyl-5-morpholin-4-yl-benzamide]: 60.1 nM.

`CN1CCN(c2cc(Nc3nccc(N(C)c4ccc(F)c(Cl)c4F)n3)cc(N3CCOCC3)c2)CC1` [Example 5, N′-(3-chloro-2,4-difluoro-phenyl)-N′-methyl-N-[3-(4-methylpiperazin-1-yl)-5-morpholin-4-yl-phenyl]pyrimidine-2,4-diamine]: the IC50 worked out at 424 nM. Next, `COc1ccc(C)c(N(C)c2ccnc(Nc3cc(N4CCOCC4)cc(N4CCN(C)CC4)c3)n2)c1` [Example 12.4, N′-(5-methoxy-2-methyl-phenyl)-N′-methyl-N-[3-(4-methylpiperazin-1-yl)-5-morpholin-4-yl-phenyl]pyrimidine-2,4-diamine]: 171 nM; `CN(c1cccc(Cl)c1)c1ccnc(Nc2cc(N3CCOCC3)cc(N3CCC(O)CC3)c2)n1` [Example 23, 1-[3-({4-[(3-chlorophenyl)(methyl)amino]pyrimidin-2-yl}amino)-5-morpholin-4-ylphenyl]piperidin-4-ol]: 1.71 nM; `Cc1ccc(CO)cc1N(C)c1ccnc(Nc2cc(N3CCOCC3)cc(N3CCC(O)CC3)c2)n1` [Example 7.8, 1-[3-[[4-[[5-(hydroxymethyl)-2-methyl-phenyl]-methyl-amino]pyrimidin-2-yl]amino]-5-morpholin-4-yl-phenyl]piperidin-4-ol]: 75.9 nM. As to `CN(c1ccnc(Nc2cc(N3CCOCC3)cc(N3CCOCC3)c2)n1)c1ccc(Cl)cc1F` [Example 15.17, N′-(4-chloro-2-fluoro-phenyl)-N-(3,5-dimorpholin-4-ylphenyl)-N′-methyl-pyrimidine-2,4-diamine], the IC50 is 1150 nM. Next, `Cc1ccc(CO)cc1N(C)c1ccnc(Nc2cc(C(=O)N3CCCC3)cc(N3CCOCC3)c2)n1` [Example 18.2]: 62.3 nM; `CN(c1ccnc(Nc2cc(N3CCC(O)CC3)cc(S(C)(=O)=O)c2)n1)c1ccc(F)c(Cl)c1F` [Example 2.11, 1-[3-[[4-[(3-chloro-2,4-difluoro-phenyl)-methyl-amino]pyrimidin-2-yl]amino]-5-methylsulfonyl-phenyl] piperidin-4-ol]: 106 nM; `CCCOc1cc(Nc2nccc(N(C)c3cc(CO)ccc3C)n2)cc(N2CCOCC2)c1` [Example 17.1, [4-methyl-3-[methyl-[2-[(3-morpholin-4-yl-5-propoxy-phenyl)amino]pyrimidin-4-yl]amino]phenyl]methanol]: 265 nM. Next, `CN(c1cccc(Cl)c1)c1ccnc(Nc2cc(C(=O)NC(C)(C)C)cc(N3CCOCC3)c2)n1` [Example 19.20, 3-[[4-[(3-chlorophenyl)-methyl-amino]pyrimidin-2-yl]amino]-5-morpholin-4-yl-N-tert-butyl-benzamide]: 3090 nM; `CN(c1ccnc(Nc2cc(N3CCOCC3)cc(N3CCOCC3)c2)n1)c1ccc(Cl)cc1Cl` [Example 15.1, N′-(2,4-dichlorophenyl)-N-(3,5-dimorpholin-4-ylphenyl)-N′-methyl-pyrimidine-2,4-diamine]: 34100 nM; `Cc1ccc(CO)cc1N(C)c1ccnc(Nc2cc(OC3CCOC3)cc(N3CCOCC3)c2)n1` (centres unmarked) [Example 17.8, [4-methyl-3-[methyl-[2-[[3-morpholin-4-yl-5-(oxolan-3-yloxy)phenyl]ami-no]pyrimidin-4-yl]amino]phenyl]methanol]: 481 nM.

In the case of `CN(c1ccnc(Nc2cc(N3CCOCC3)cc(N3CCOCC3)c2)n1)c1ccccc1F` [Example 10.16, N-(3,5-dimorpholin-4-ylphenyl)-N′-(2-fluorophenyl)-N′-methyl-pyrimidine-2,4-diamine], the IC50 came out at 237 nM. The figure for `COCc1cc(Nc2nccc(N(C)c3ccc(F)c(Cl)c3F)n2)cc(N2CCOCC2)c1` [Example 2.14, N′-(3-chloro-2,4-difluoro-phenyl)-N-[3-(methoxymethyl)-5-morpholin-4-yl-phenyl]-N′-methyl-pyrimidine-2,4-diamine] is 653 nM; for `CN1CCN(C(=O)c2cc(Nc3nccc(N(C)c4cccc(Cl)c4)n3)cc(N3CCOCC3)c2)CC1` [Example 19.11, [3-[[4-[(3-chlorophenyl)-methyl-amino]pyrimidin-2-yl]amino]-5-morpholin-4-yl-phenyl]-(4-methylpiperazin-1-yl)methanone] it is 207 nM.

Regarding `Cc1cccc(CO)c1N(C)c1ccnc(Nc2cc(N3CCOCC3)cc(N3CCOCC3)c2)n1` [Example 25.1, (2-((2-(3,5-dimorpholinophenylamino)pyrimidin-4-yl)(methyl)amino)-3-methylphenyl)methanol], the IC50 is 52.8 nM.

`CN(c1cccc(Cl)c1)c1ccnc(Nc2cc(C(=O)NC(C)(C)CO)cc(N3CCOCC3)c2)n1` [Example 19.19, 3-[[4-[(3-chlorophenyl)-methyl-amino]pyrimidin-2-yl]amino]-N-(1-hydroxy-2-methyl-propan-2-yl)-5-morpholin-4-yl-benzamide]: the IC50 worked out at 1050 nM. The figure for `Cc1ccc(CO)cc1N(C)c1ccnc(Nc2cc(C(=O)NCC3CC3)cc(N3CCOCC3)c2)n1` [Example 18.5, N-(cyclopropylmethyl)-3-[[4-[[5-(hydroxymethyl)-2-methyl-phenyl]-methyl-amino]pyrimidin-2-yl]amino]-5-morpholin-4-yl-benzamide] is 477 nM; for `COc1ccc(C)c(N(C)c2ccnc(Nc3cc(N4CCOCC4)cc(N4CCOC[C@@H]4C)c3)n2)c1` [Example 12.8, (S)-N4-(5-methoxy-2-methylphenyl)-N4-methyl-N2-(3-(3-methylmorpholino)-5-morpholinophenyl)pyrimidine2,4-diamine] it is 5.82 nM. The figure for `CC(C)NC(=O)c1cc(Nc2nccc(N(C)c3cccc(Cl)c3)n2)cc(N2CCOCC2)c1` [Example 19.14, 3-[[4-[(3-chlorophenyl)-methyl-amino]pyrimidin-2-yl]amino]-5-morpholin-4-yl-N-propan-2-yl-benzamide] is 1180 nM. Take `COc1ccc(C)cc1N(C)c1ccnc(Nc2cc(N3CCOCC3)cc(N3CCOCC3)c2)n1` [Example 15.13, N-(3,5-dimorpholin-4-ylphenyl)-N′-(2-methoxy-5-methyl-phenyl)-N′-methyl-pyrimidine-2,4-diamine]: the IC50 came to 722 nM. Next, `COc1ccc(C)c(N(C)c2ccnc(Nc3cc(N4CCNCC4)cc(N4CCOCC4)c3)n2)c1` [Example 12.6, N4-(5-methoxy-2-methylphenyl)-N4-methyl-N2-(3-morpholino-5-(piperazin-1-yl)phenyl)pyrimidine-2,4-diamine]: 3.4 nM; `CN(c1ccnc(Nc2cc(CN3CCC(O)CC3)cc(N3CCOCC3)c2)n1)c1ccc(F)c(Cl)c1F` [Example 2.19, 1-[[3-[[4-[(3-chloro-2,4-difluoro-phenyl)-methyl-amino]pyrimidin-2-yl]amino]-5-morpholin-4-yl-phenyl]methyl]piperidin-4-ol]: 59.6 nM.

(Values after US20080242663A1, “NOVEL PYRIMIDINE DERIVATIVES 698” (ASTRAZENECA AB, priority 2007, published 2008).)
